What was measured:
[1] = tested on: SAD sickle mouse red cells; experiment: Fluo-3 fluorescence measurement of [Ca2+]i during deoxygenation, SAD cells; assay type: cell-based; conditions: 1 μM; SAD red cells
Method: (§1) Blood was withdrawn by cardiac puncture or from the tail vein of C57B16/J wildtype mice, SAD sickle mice, or Berkeley sickle mice into heparinized syringes by IACUC-approved protocols of Beth Israel Deaconess Medical Center. Buffy coat-depleted cells were washed 5 times in standard mouse red cell wash solution containing (in mM) 172 choline Cl, 10 sucrose, 10 Na Tris-MOPS, pH 7.4, resuspended in storage solution, and kept at 4° C. until use.
(§2) Fluorescence measurements of cytosolic [Ca^2+] ([Ca^2+]i): After removal of plasma and buffy coat by aspiration, human or mouse red cells were washed three times at room temperature and suspended in modified Hank's solution containing (in mM), 137 NaCl, 5.4 KCl, 1 CaCl2, 1 MgCl2, 0.8 NaK phosphate, 5.6 glucose, and 10 Na HEPES, pH 7.4. Dilute cell suspensions were settled on polylysine-coated coverslips forming the bottom of an open perfusion chamber (2.5 cm diameter, 1 cm depth) and washed again 3 times.
Measurement of relative changes in [Ca^2+]i by Fluo-3 fluorescence emission was previously validated in intact human (Yang et al. 2000, Blood, 95(7):2421-2425; Andrews et al. 2002, Blood, 199(9):3392-3399) and mouse red cells (Akel et al. 2007, Amer. J. Physiol., 292(5):C1759-1767). Attached red cells were loaded in the dark with the fluorescent non-ratiometric Ca^2+ indicator Fluo-3-AM (10 μM, Molecular Probes, Eugene, Oreg.) at 37° C. for 1 hr, then washed and incubated 15 min further to allow de-esterification of intracellular dye. The open perfusion chamber containing dye-loaded cells was mounted on an Olympus IMT-2 inverted epifluorescence microscope equipped with CoolSNAP CCD camera (Photometrics, Tucson, Ariz.). Fluo-3 in cells imaged through a 60× objective was excited by mercury-xenon illumination passed through a 495ds20 filter. Fluorescence emission (proportional to [Ca^2+]i) from a 535ds20 bandpass filter was collected from all attached single cells within the arbitrarily selected visual field. Emission image acquisition was controlled by a Metafluor digital imaging system (Universal Imaging, West Chester, Pa.).
(§3) Fluo-3 fluorescence from attached cells on each coverslip was recorded 60 sec in room air and then for 10 min after onset of perfusion chamber flushing with humidified 100% N2. The normalized increase in Fluo-3 fluorescence in SS cells subjected to this deoxygenation procedure was indistinguishable from that observed during superfusion of cells in a closed perfusion chamber via syringe pump with bath previously bubbled for 60 min with 100% N2 (n=62 cells from 2 SS patients, not shown). The y-axis value of 0% change in Fluo-3 fluorescence intensity represented mean intensity recorded from all cells within the coverslip visual field during the 60 sec prior to deoxygenation.

[2] = tested on: mechanosensitive channel (MSC); conditions: previously shown; cited from earlier work
[3] = tested on: red cell; assay type: cell-based; conditions: data not shown
[4] = tested on: mdx mice; experiment: Toxicity with daily subQ dosing for 30 days; assay type: in vivo, mouse
Method: This example describes toxicity studies with GsMTx-4. In one experiment, D-GsMTx4 was administered to 60 mdx mice and controls by daily subQ dosing at 5 mg/kg for 30 days at the Washington D.C. Wellstone center.

[5] = target: T1, KCa3.1 (Homo sapiens, UniProt O15554); assay type: cell-based; conditions: 1 μM; intact human AA cells, 1 μM A23187, extracellular Ca2+; n=3
T1 construct: KCa3.1 activity stimulated in intact human AA cells by 1 μM A23187; endogenous in cells; host or cells: intact human AA red blood cells
T1 sequence (O15554 whole entry): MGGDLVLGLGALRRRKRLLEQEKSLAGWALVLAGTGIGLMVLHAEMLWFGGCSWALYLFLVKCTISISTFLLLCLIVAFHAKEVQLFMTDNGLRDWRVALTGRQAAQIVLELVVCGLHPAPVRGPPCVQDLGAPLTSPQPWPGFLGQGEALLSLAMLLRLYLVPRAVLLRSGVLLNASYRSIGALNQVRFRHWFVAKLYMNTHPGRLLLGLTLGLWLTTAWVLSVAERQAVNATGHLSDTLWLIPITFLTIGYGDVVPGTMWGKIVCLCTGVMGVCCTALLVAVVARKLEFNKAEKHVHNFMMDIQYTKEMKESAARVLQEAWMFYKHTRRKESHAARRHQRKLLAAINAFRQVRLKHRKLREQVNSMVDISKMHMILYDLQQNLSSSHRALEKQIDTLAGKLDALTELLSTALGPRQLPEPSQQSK

[6] = tested on: Berkeley sickle mouse red cells; experiment: Fluo-3 fluorescence measurement of [Ca2+]i during deoxygenation, Berkeley cells; assay type: cell-based; conditions: 1 μM bath preincubation
Method: as §1
Fluorescence measurements of cytosolic [Ca^2+] […]
(§4) Measurement of relative changes in [Ca^2+]i by Fluo-3 fluorescence emission was previously validated in intact human (Yang et al. 2000, Blood, 95(7):2421-2425; Andrews et al. 2002, Blood, 199(9):3392-3399) and mouse red cells (Akel et al. 2007, Amer. J. Physiol., 292(5):C1759-1767). […] Fluorescence emission (proportional to [Ca^2+]i) from a 535ds20 bandpass filter was collected from all attached single cells within the arbitrarily selected visual field. […]
Fluo-3 fluorescence from attached cells on each coverslip was recorded 60 sec in room air and then for 10 min after onset of perfusion chamber flushing with humidified 100% N2. […] The y-axis value of 0% change in Fluo-3 fluorescence intensity represented mean intensity recorded from all cells within the coverslip visual field during the 60 sec prior to deoxygenation.

[7] = tested on: human SS red cells; experiment: Fluo-3 fluorescence measurement of [Ca2+]i during deoxygenation, human SS cells; assay type: cell-based; conditions: 1 μM, 10 min pretreatment and continued presence in bath
Method: Blood cell preparation: Human SS and AA blood was obtained under IRB-approved protocols of Children's Hospital and Beth Israel Deaconess Medical Center. After buffy coat removal and 5 washes in standard human red cell wash solution containing (in mM) 150 choline Cl, 1 MgCl, and 10 Tris-MOPS, pH 7.4, red cells were resuspended in storage solution containing (in mM) 145 KCl, 15 NaCl, and 10 HEPES, pH 7.4, then kept at 4° C. until used. Human red cells allowed to settle on coverslips were mounted on an inverted microscope in a 200 μl open chamber (WPI, Sarasota, Fla.) and superfused 15 min at room temperature by bath solution containing (in mM) 150 Na methanesulfonate, 10 Na EDTA, and 10 Na HEPES, pH 7.4.
Washed human or mouse red cells in solution containing (in mM) 140 NaCl, 5 KCl, 1 CaCl2, 1 MgCl2, 10 Na HEPES, pH 7.4 were exposed for 1 hr on a rotary platform in a 37° C. incubator to 25 ppm carbon monoxide (CO) in 5% CO2. CO-exposed cells were then subjected to patch clamp or to calcium imaging experiments within 60 min after return to room air, using the solutions indicated.
as §2, §4, §3

[8] = target: T1, KCa3.1; experiment: A23187-stimulated KCa3.1 activity measured as 86Rb influx; assay type: cell-based; conditions: 1 μM; intact human AA cells, 1 μM A23187, extracellular Ca2+; n=3

Grammastola spatulata mechanotoxin 4 (GCLEFWWKCNPNDDKCCRPKLKCSKLFKLCNFSF; listed as Grammastola spatulata) [GsMTx-4]
effect on increased [Ca2+]i accompanying deoxygenation [1]: completely inhibited
effect on mechanosensitive channel (MSC) activity [2]: block
effect on red cell shape [3]: did not alter
toxicity in mice, general statement [4]: very low to absent toxicity
toxicity ([4]; 5 mg/kg subQ daily, 30 days (month long)): no toxicity observed
effect on KCa3.1 activity, cell shrinkage [5]: no effect
effect on deoxygenation-increased [Ca2+]i [6]: inhibited nearly completely
effect on deoxygenation-increased [Ca2+]i ([6]; listed as GsMtx-4): prevented
effect on [Ca2+]i elevation by deoxygenation [7]: prevented
effect on [Ca2+]i elevation by deoxygenation ([7]; listed as GsMTx4): nearly completely block
effect on [Ca2+]i elevation by deoxygenation ([7]; listed as GsTMx-4): blocked
effect on KCa3.1 activity, 86Rb influx [8]: no effect

Reference: patent publication US9211313B2, “Methods and compound to inhibit Ca2+ permeable cation conductance” (priority 2011, dated 2015)
